Test results published in US5316775A, “Method of treating hepatitis B infection” (Kremers-Urban Company, priority 1993, dated 1994).
Values joined by “and” are separate entries in the source; they are usually repeats but may differ in a detail not shown here. Equal values may be shown once. Read-outs that look alike come from different tables or passages of the source.

Legend:
Assay type in all cases: cell-based
HBV = test: antihepatitis viral activity: HBV virion DNA and intracellular HBV DNA in cultured cells (blot hybridization)
Method: Details of the assay methodology can be found in: Korba and Milman, Antiviral Res., 15:217 (1991) and Korba and Gerin, Antiviral Res. (1992) (in press). The antiviral evaluations were performed on two separate passages of cells. All wells, in all plates, were seeded at the same density and at the same time. Due to the inherent variations in the levels of both intracellular and extracellular HBV DNA, only depressions greater than 3.5-fold (for HBV virion DNA) or 3.0-fold (for HBV DNA replication intermediates) from the average levels for these HBV DNA forms in untreated cells are generally considered to be statistically significant [P<0.05]. The levels of integrated HBV DNA in each cellular DNA preparation (which remain constant on a per cell basis in these experiments) were used to calculate the levels of intracellular HBV DNA forms, thereby eliminating technical variations inherent in the blot hybridization assays.
Typical values for extracellular HBV virion DNA in untreated cells range from 50 to 100 pg/ml culture medium (average of approximately 76 pg/ml). Intracellular HBV DNA replication intermediates in untreated cells range from 50 to 100 pg/μg cell DNA) (average approximately 74 pg/μg cell DNA). In general, depressions in the levels of intracellular HBV DNA due to treatment with antiviral compounds are less pronounced, and occur more slowly, than depressions in the levels of HBV virion DNA).
In the following data table, data is shown concerning analysis of intracellular HBV DNA at 24 hours following the 9th day of treatment. DNA in each cell DNA preparation were used to calculate the levels of episomal 3.2 Kb HBV genomes (MONO.) and HBV DNA replication intermediates (RI). A "zero" indicates an undetectable level of HBV DNA, sensitivity cutoff was 0.1 pg/ml.

[1] = toxicity analysis: uptake of neutral red dye; settings: triplicate cultures, ± standard deviation, read-out: Neutral Red Dye Uptake at Indicated Drug Concentration
Method: (§1) Toxicity analyses were performed in order to assess whether any observed antiviral effects are due to a general effect on cell viability. The method used was uptake of neutral red dye, a standard and widely used assay for cell viability in a variety of virus-host systems, including HSV and HIV.
(§2) Toxicity results were performed in 96-well flat bottomed tissue cultures plates. Cells for the toxicity analyses were cultured and treated with test compounds with the same schedule as used for the antiviral evaluations. Each compound was tested at four concentrations, each in triplicate cultures. Uptake of neutral red dye was used to determine the relative level of toxicity. The absorbance of internalized dye at […] (A510) was used for the quantitative analysis. Values are presented as a percentage of the average A510 values (±standard deviations) in nine separate cultures of untreated cells maintained on the same 96-well plate as the test compounds.

cell viability = test: toxicity analysis: uptake of neutral red dye; settings: triplicate cultures, ± standard deviation
Method: as §1, §2

## Nc1ccn([C@H]2CC[C@@H](CO)O2)c(=O)n1 [2',3'-ddC, 2,3'-dideoxycytosine]
HBV
  effect on HBV DNA replication (in words): significant depressions of HBV DNA replication
HBV; 10 μM, 24 hours following the 9th day of treatment
  Intracellular HBV DNA MONO. (episomal 3.2 Kb HBV genomes): 1.6 pg/μg CELL DNA and 1.8 pg/μg CELL DNA
HBV; 10 μM, day 0
  HBV VIRION DNA DAY 0: 63 pg/ml CULTURE MEDIUM and 87 pg/ml CULTURE MEDIUM and 82 pg/ml CULTURE MEDIUM
HBV; 10 μM, day 3
  HBV VIRION DNA DAY 3: 75 pg/ml CULTURE MEDIUM and 56 pg/ml CULTURE MEDIUM and 61 pg/ml CULTURE MEDIUM
HBV; 10 μM, day 6
  HBV VIRION DNA DAY 6: 26 pg/ml CULTURE MEDIUM
HBV; 10 μM, day 9, zero = undetectable, cutoff 0.1 pg/ml
  HBV VIRION DNA DAY 9: 2 pg/ml CULTURE MEDIUM and 1 pg/ml CULTURE MEDIUM
HBV; Hepatitis B virus, read-out: depression of HBV RI relative to average levels in untreated cells
  inhibition at 9 µM: 90%
[1]; 1000 μg/ml
  viability: 12 ± 5%
[1]; 3000 μg/ml
  viability: 40 ± 4%
Cell viability; 10 μg/ml
  Neutral Red Dye Uptake at Indicated Drug Concentration: 102 ± 2 % of Control
Cell viability; 30 μg/ml
  Neutral Red Dye Uptake at Indicated Drug Concentration: 101 ± 3 % of Control
